This experiment deals with HCV 1b-377-neo replicon cells. Nature of the experiment: HCV replicon assay, HCV 1b-377-neo replicon cells (1b FRET). Type of experiment: cell-based, Hepatitis C virus genotype 1b. The following applies: Hepatitis C virus, HCV 1b-377-neo replicon cells; HCV 1b genotype; read-out: EC50 range against HCV 1b (Table 2, Range). The procedure, abridged: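 Compounds were tested in genotype 1b subgenomic replicon cells carrying a neomycin marker, alongside a matched replicon line with an NS5A Y2065H substitution that confers resistance to a reference NS5A inhibitor.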

The structures appear in SMILES notation.

What is called EC50 is the concentration that produces a half-maximal response. Regarding `COC(=O)N[C@@H](C)C(=O)N1CCC[C@H]1c1ncc(-c2ccc(-c3ccc(-c4cnc([C@@H]5CCCN5C(=O)[C@H](Cc5ccc(O)cc5)NC(=O)OC)[nH]4)cc3)cc2)[nH]1` [cj-113, methyl ((1S)-1-(4-hydroxybenzyl)-2-((2S)-2-(5-(4′-(2-((2S)-1-(N-(methoxycarbonyl)-L-alanyl)-2-pyrrolidinyl)-1H-imidazol-5-yl)-4-biphenylyl)-1H-imidazol-2-yl)-1-pyrrolidinyl)-2-oxoethyl)carbamate], the EC50 was 0.001 to 0.999 nM.

Turning to `COC(=O)N[C@@H](Cc1ccc(CNC(C)=O)cc1)C(=O)N1CCC[C@H]1c1ncc(-c2ccc(-c3ccc(-c4cnc([C@@H]5CCCN5C(=O)[C@@H](NC(=O)OC)C(C)C)[nH]4)cc3)cc2)[nH]1` [cj-114, methyl ((1S)-1-(4-(acetamidomethyl)benzyl)-2-((2S)-2-(5-(4′-(2-((2S)-1-((2S)-2-((methoxycarbonyl)amino)-3-methylbutanoyl)-2-pyrrolidinyl)-1H-imidazol-5-yl)-4-biphenylyl)-1H-imidazol-2-yl)-1-pyrrolidinyl)-2-oxoethyl)carbamate], the EC50 is 0.001 to 0.999 nM.

In the case of `CCNC(=O)NCc1ccc(C[C@H](NC(=O)OC)C(=O)N2CCC[C@H]2c2ncc(-c3ccc(-c4ccc(-c5cnc([C@@H]6CCCN6C(=O)[C@@H](NC(=O)OC)C(C)C)[nH]5)cc4)cc3)[nH]2)cc1` [cj-115, methyl ((1S)-1-(4-(((ethylcarbamoyl)amino)methyl)benzyl)-2-((2S)-2-(5-(4′-(2-((2S)-1-((2S)-2-((methoxycarbonyl)amino)-3-methylbutanoyl)-2-pyrrolidinyl)-1H-imidazol-5-yl)-4-biphenylyl)-1H-imidazol-2-yl)-1-pyrrolidinyl)-2-oxoethyl)carbamate], the EC50 lay within 0.001 to 0.999 nM.

With `CCN(CC)[C@@H](C(=O)N1CCC[C@H]1c1ncc(-c2ccc(-c3ccc(-c4cnc([C@@H]5CCCN5C(=O)[C@H]5CCC[C@@H]5NC(=O)OC)[nH]4)cc3)cc2)[nH]1)c1ccccc1` [cj-116, methyl ((1S,2S)-2-(((2S)-2-(5-(4′-(2-((2S)-1-((2R)-2-(diethylamino)-2-phenylacetyl)-2-pyrrolidinyl)-1H-imidazol-5-yl)-4-biphenylyl)-1H-imidazol-2-yl)-1-pyrrolidinyl)carbonyl)cyclopentyl)carbamate], the EC50 was in the range of 0.001 to 0.999 nM.

As to `COC(=O)N[C@H]1CCC[C@@H]1C(=O)N1CCC[C@H]1c1ncc(-c2ccc(-c3ccc(-c4cnc([C@@H]5CCCN5C(=O)[C@H](NC(=O)OC)c5ccccc5)[nH]4)cc3)cc2)[nH]1` [cj-117, methyl ((1R)-2-((2S)-2-(5-(4′-(2-((2S)-1-(((1S,2S)-2-((methoxycarbonyl)amino)cyclopentyl)carbonyl)-2-pyrrolidinyl)-1H-imidazol-5-yl)-4-biphenylyl)-1H-imidazol-2-yl)-1-pyrrolidinyl)-2-oxo-1-phenylethyl)carbamate], the EC50 lay within 0.001 to 0.999 nM.

Regarding `COC(=O)N[C@@H](C)C(=O)N1CCC[C@H]1c1ncc(-c2ccc(-c3ccc(-c4cnc([C@@H]5CCCN5C(=O)[C@H]5CCC[C@@H]5NC(=O)OC)[nH]4)cc3)cc2)[nH]1` [cj-118, methyl ((1S,2S)-2-(((2S)-2-(5-(4′-(2-((2S)-1-(N-(methoxycarbonyl)-L-alanyl)-2-pyrrolidinyl)-1H-imidazol-5-yl)-4-biphenylyl)-1H-imidazol-2-yl)-1-pyrrolidinyl)carbonyl)cyclopentyl)carbamate], the EC50 lay within 0.001 to 0.999 nM.

As to `COCC[C@H](NC(=O)OC)C(=O)N1CCC[C@H]1c1ncc(-c2ccc(-c3ccc(-c4cnc([C@@H]5CCCN5C(=O)[C@@H](NC(=O)OC)C(C)C)[nH]4)cc3)cc2)[nH]1` [cj-119, methyl ((1S)-1-(((2S)-2-(5-(4′-(2-((2S)-1-(N-(methoxycarbonyl)-O-methyl-L-homoseryl)-2-pyrrolidinyl)-1H-imidazol-5-yl)-4-biphenylyl)-1H-imidazol-2-yl)-1-pyrrolidinyl)carbonyl)-2-methylpropyl)carbamate], the EC50 was in the range of 0.001 to 0.999 nM.

Take `COCC[C@H](NC(=O)OC)C(=O)N1CCC[C@H]1c1ncc(-c2ccc(-c3ccc(-c4cnc([C@@H]5CCCN5C(=O)[C@H](C)NC(=O)OC)[nH]4)cc3)cc2)[nH]1` [cj-120, methyl ((1S)-3-methoxy-1-(((2S)-2-(5-(4′-(2-((2S)-1-(N-(methoxycarbonyl)-L-alanyl)-2-pyrrolidinyl)-1H-imidazol-5-yl)-4-biphenylyl)-1H-imidazol-2-yl)-1-pyrrolidinyl)carbonyl)propyl)carbamate]: the EC50 was in the range of 0.001 to 0.999 nM.

Turning to `COCC[C@H](NC(=O)OC)C(=O)N1CCC[C@H]1c1ncc(-c2ccc(-c3ccc(-c4cnc([C@@H]5CCCN5C(=O)[C@@H](NC(=O)OC)[C@@H](C)OC)[nH]4)cc3)cc2)[nH]1` [cj-121, methyl ((1S,2R)-2-methoxy-1-(((2S)-2-(5-(4′-(2-((2S)-1-(N-(methoxycarbonyl)-O-methyl-L-homoseryl)-2-pyrrolidinyl)-1H-imidazol-5-yl)-4-biphenylyl)-1H-imidazol-2-yl)-1-pyrrolidinyl)carbonyl)propyl)carbamate], the EC50 lay in the range of 0.001 to 0.999 nM.

Turning to `COCC[C@H](NC(=O)OC)C(=O)N1CCC[C@H]1c1ncc(-c2ccc(-c3ccc(-c4cnc([C@@H]5CCCN5C(=O)[C@H]5CCC[C@@H]5NC(=O)OC)[nH]4)cc3)cc2)[nH]1` [cj-122, methyl ((1S,2S)-2-(((2S)-2-(5-(4′-(2-((2S)-1-(N-(methoxycarbonyl)-O-methyl-L-homoseryl)-2-pyrrolidinyl)-1H-imidazol-5-yl)-4-biphenylyl)-1H-imidazol-2-yl)-1-pyrrolidinyl)carbonyl)cyclopentyl)carbamate], the EC50 was 0.001 to 0.999 nM.

For `COC(=O)N[C@@H](Cc1c[nH]nn1)C(=O)N1CCC[C@H]1c1ncc(-c2ccc(-c3ccc(-c4cnc([C@@H]5CCCN5C(=O)[C@H](Cc5c[nH]nn5)NC(=O)OC)[nH]4)cc3)cc2)[nH]1` [cj-125, methyl ((1S)-2-((2S)-2-(5-(4′-(2-((2S)-1-((2S)-2-((methoxycarbonyl)amino)-3-(1H-1,2,3-triazol-4-yl)propanoyl)-2-pyrrolidinyl)-1H-imidazol-5-yl)-4-biphenylyl)-1H-imidazol-2-yl)-1-pyrrolidinyl)-2-oxo-1-(1H-1,2,3-triazol-4-ylmethyl)ethyl)carbamate], the EC50 is 1 to 99 nM.

Turning to `COC(=O)N[C@@H](C)CC(=O)N1CCC[C@H]1c1ncc(-c2ccc(-c3ccc(-c4cnc([C@@H]5CCCN5C(=O)C[C@H](C)NC(=O)OC)[nH]4)cc3)cc2)[nH]1` [cj-126, dimethyl (4,4′-biphenyldiylbis(1H-imidazole-5,2-diyl(2S)-2,1-pyrrolidinediyl((2S)-4-oxo-4,2-butanediyl)))biscarbamate], the EC50 was in the range of 0.001 to 0.999 nM.

`COC(=O)N[C@H](CC(=O)N1CCC[C@H]1c1ncc(-c2ccc(-c3ccc(-c4cnc([C@@H]5CCCN5C(=O)C[C@@H](NC(=O)OC)C(C)C)[nH]4)cc3)cc2)[nH]1)C(C)C` [cj-127, dimethyl (4,4′-biphenyldiylbis(1H-imidazole-5,2-diyl(2S)-2,1-pyrrolidinediyl((3R)-4-methyl-1-oxo-1,3-pentanediyl)))biscarbamate]: the EC50 fell in the range of 1 to 99 nM.

As for `COC(=O)N[C@H](CC(=O)N1CCC[C@H]1c1ncc(-c2ccc(-c3ccc(-c4cnc([C@@H]5CCCN5C(=O)C[C@@H](NC(=O)OC)c5ccccc5)[nH]4)cc3)cc2)[nH]1)c1ccccc1` [cj-128, methyl ((1R)-3-((2S)-2-(5-(4′-(2-(1-((3R)-3-((methoxycarbonyl)amino)-3-phenylpropanoyl)-2-pyrrolidinyl)-1H-imidazol-5-yl)-4-biphenylyl)-1H-imidazol-2-yl)-1-pyrrolidinyl)-3-oxo-1-phenylpropyl)carbamate], the EC50 was 0.001 to 0.999 nM.

On to `COC(=O)N[C@@H](CC(=O)N1CCC[C@H]1c1ncc(-c2ccc(-c3ccc(-c4cnc([C@@H]5CCCN5C(=O)C[C@H](NC(=O)OC)c5ccccc5)[nH]4)cc3)cc2)[nH]1)c1ccccc1` [cj-129, methyl ((1S)-3-((2S)-2-(5-(4′-(2-(1-((3S)-3-((methoxycarbonyl)amino)-3-phenylpropanoyl)-2-pyrrolidinyl)-1H-imidazol-5-yl)-4-biphenylyl)-1H-imidazol-2-yl)-1-pyrrolidinyl)-3-oxo-1-phenylpropyl)carbamate], for which the EC50 was 0.001 to 0.999 nM.

With `COC(=O)N[C@@H](Cc1ccccn1)C(=O)N1CCC[C@H]1c1ncc(-c2ccc(-c3ccc(-c4cnc([C@@H]5CCCN5C(=O)[C@H](Cc5ccccn5)NC(=O)OC)[nH]4)cc3)cc2)[nH]1` [cj-130, methyl ((1S)-2-((2S)-2-(5-(4′-(2-((2S)-1-((2S)-2-((methoxycarbonyl)amino)-3-(2-pyridinyl)propanoyl)-2-pyrrolidinyl)-1H-imidazol-5-yl)-4-biphenylyl)-1H-imidazol-2-yl)-1-pyrrolidinyl)-2-oxo-1-(2-pyridinylmethyl)ethyl)carbamate], the EC50 was in the range of 0.001 to 0.999 nM.

Regarding `COC(=O)N[C@@H](Cc1c[nH]cn1)C(=O)N1CCC[C@H]1c1ncc(-c2ccc(-c3ccc(-c4cnc([C@@H]5CCCN5C(=O)[C@H](Cc5c[nH]cn5)NC(=O)OC)[nH]4)cc3)cc2)[nH]1` [cj-131, methyl ((1S)-2-((2S)-2-(5-(4′-(2-((2S)-1-((2S)-3-(1H-imidazol-4-yl)-2-((methoxycarbonyl)amino)propanoyl)-2-pyrrolidinyl)-1H-imidazol-5-yl)-4-biphenylyl)-1H-imidazol-2-yl)-1-pyrrolidinyl)-1-(1H-imidazol-4-ylmethyl)-2-oxoethyl)carbamate], the EC50 is 1 to 99 nM.

For `O=C1C[C@@H](C(=O)N2CCC[C@H]2c2ncc(-c3ccc(-c4ccc(-c5cnc([C@@H]6CCCN6C(=O)[C@@H]6CC(=O)NC(=O)N6)[nH]5)cc4)cc3)[nH]2)NC(=O)N1` [cj-132, (6S,6′S)-6,6′-(4,4′-biphenyldiylbis(1H-imidazole-5,2-diyl(2S)-2,1-pyrrolidinediylcarbonyl))didihydro-2,4(1H,3H)-pyrimidinedione], the EC50 was 100 to 999 nM.

Source of the values: US8574563B2 (Bristol-Myers Squibb Company, priority 2006, dated 2013).
